Measurements published in US8846704B2, “Thiopyrimidine-based compounds and uses thereof” (YM Biosciences Austraila Pty Ltd, priority 2007, dated 2014).

Key:
human JAK1 = target: T1, human JAK1 (Homo sapiens, UniProt P23458); test: Alphascreen tyrosine kinase enzyme assay, JAK1 kinase domain; assay type: biochemical; settings: read-out: JAK1 IC50_nM
T1 construct: The kinase domain of human JAK1 was amplified; GST (N); made in house; host or cells: Sf9 insect cells (baculovirus)
Experimental: For screening purposes, compounds (in 100% DMSO) were warmed at 37 degrees for at least 20 minutes before use. A […] stock was initially made in assay buffer, where the final concentration of DMSO was 0.3%. The stocks were then diluted in 384 well Optiplates (Packard) where the final concentration of the compound was […].
The kinase domain of human JAK1 was amplified from U937mRNA using the polymerase chain reaction with the following primers: […]
The JAK1 PCR products were cloned into the pDest20 destination vector (Gibco). The JAK1 plasmid was then transformed into competent DH10Bac cells (Gibco), and the recombinant baculovirus was prepared via Sf9 insect cell transfection.
Baculovirus preparations from each of the constructs were infected into either one or five liters of Sf9 cells (Invitrogen) grown in SF-900 medium (Invitrogen) to a cell density of approximately 1-2×10^6 cells/ml. Cells were infected with virus at a MOI of 0.8-3.0. Cells were harvested and lysed. Tyrosine kinase domains were purified by affinity chromatography on a glutathione-agarose column (Scientifix Pty. Ltd. catalog #: GSH-200).
Kinase assays were performed in 384 well Optiplates (Packard) using an Alphascreen Protein Tyrosine Kinase PY100 detection kit The compounds were pre-incubated with affinity purified PTK domain in the presence of phosphotyrosine assay buffer (10 mM HEPES, pH 7.5, 100 mM MgCl2, 25 mM NaCl, […] and 0.1% Tween 20) for 20 minutes. The compounds were then incubated with substrate in the presence of ATP. The substrate used was susbtrate-1 with the sequence biotin-EGPWLEEEEEAYGWMDF-NH2 [SEQ. ID. NO. 13] (final concentration […]). For HCK 80 μm ATP was used and incubated for 60 minutes. Alphascreen phosphotyrosine acceptor beads followed by streptavidin donor beads at a concentration of 1/100 in stop buffer were added to each well under subdued light and incubated for 2-3 hours., The Alphascreen plates were read on a Packard Fusion Alpha instrument.

human JAK2 = target: T2, human JAK2 (Homo sapiens, UniProt O60674); test: Alphascreen tyrosine kinase enzyme assay, JAK2 kinase domain; assay type: biochemical; settings: read-out: JAK2 IC50_nM
T2 construct: The kinase domain of human JAK2 was amplified; GST (N); made in house; host or cells: Sf9 insect cells (baculovirus)
Method in brief: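 JAK2 kinase domain expressed in baculovirus/Sf9 and glutathione-affinity purified. Compounds (final […]) pre-incubated 20 min with enzyme in 10 mM HEPES pH 7.5, MgCl2, NaCl, vanadate, 0.1% Tween 20.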

human JAK3 = target: T3, human JAK3 (Homo sapiens, UniProt P52333); test: Alphascreen tyrosine kinase enzyme assay, JAK3 kinase domain; assay type: biochemical; settings: read-out: JAK3 IC50_nM
T3 construct: The kinase domain of human JAK3 was amplified; GST (N); made in house; host or cells: Sf9 insect cells (baculovirus)
Method in brief: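 GST-affinity-purified human JAK3 kinase domain (baculovirus/Sf9) was pre-incubated 20 min with compound ([…]) in HEPES pH 7.5 buffer with MgCl2, vanadate and Tween 20. Biotinylated peptide substrate ([…]) and ATP were then added; phosphotyrosine was detected by AlphaScreen PY100 acceptor and streptavidin donor beads after 2–3 h.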

[1] = target: T4, BaF3 TELJAK2 cells (BafT_J2) (Homo sapiens, UniProt O60674); test: Cellular screening, BaF3 TEL:JAK2 cells, Alamar Blue; assay type: cell-based; settings: 40 hr, read-out: BafT_J2 IC50_nM
T4 construct: fused on or other part: TEL (ETV6) N-terminal part, coding nucleotides 1-487, serves as the oligomerising partner; It is fused through a Sal I site to the JAK2 kinase domain and expressed from pTRE2 in BaF3 cells bearing pTET-off; P41212 (Transcription factor ETV6)
Experimental: For screening purposes, compounds were diluted in 96 well plates at a concentration of 20 μM. Plates were warmed at 37° C. for 30 minutes before the assay was performed.
The coding region encompassing nucleotides 1-487 of TEL was amplified by PCR using the oligonucleotides STEL (5′-GGAGGATCCTGATCTCTCTCGCTGTGAGAC-3′) [SEQ ID NO 14] and 3TEL (5′-AGGC GTCGACTTCTTCTTCATGGTTCTG-3′) [SEQ ID NO 15] and U937 mRNA as a template. A […] restriction site was incorporated into the STEL primer, and a Sal I restriction site was incorporated into the 3TEL primer. The regions encompassing the kinase domain of JAK2 (nucleotides 2994-3914; JAK2F 5′-ACGC GTCGACGGTGCCTTTGAAGACCGGGAT-3′ [SEQ ID NO 16]; JAK2R 5′-ATAGTTTAGCGGCCGCTCAGAATGAAGGTCATTT-3′) [SEQ ID NO 17] and JAK3 (nucleotides 2520-3469; JAK3F 5′-GAAGTCGACTATGCCTGCCAAGACCCCACGATCTT-3′) [SEQ ID NO 18] were generated by PCR using Taq DNA polymerase (Gibco/BRL) and […] as a template. A Sal I restriction site was incorporated into the forward primer of JAK2 and JAK3, a Not I site was incorporated into the JAK2 reverse primer and a Xba I site was added to the reverse primer of JAK3.
A TEL/Jak2 fusion was generated by digestion of the TELPCR product with BamH I/Sal I restriction enzymes, digestion of the JAK2 PCR product with Sal I/Not I restriction enzymes, followed by ligation and subcloning of the ligation product into the mammalian expression Vector pTRE 2 (Clontech), which was prepared by digestion with BamH I-Not I restriction enzymes, to give the TEL/Jak2 fusion plasmid pTELJAK2.
The growth factor dependant myelomonocytic cell line BaF3 bearing the pTET-off plasmid (Clontech) was transfected with either pTELJAK2 or pTELJAK3, and the transfected cells were selected for growth-factor independent cell growth. The BaF3 wild-type cells were cultured in DMEM containing 10% FCS, 10% WEHI 3B conditioned medium. The BaF3 TELJAK cells ([…]) were cultured in DMEM 10% Tet-System Approved FBS (without WEHI 3B conditioned medium).
Cell suspensions were prepared by harvesting cells from culture (the cells used in this test were in late log phase growth with high viability.) Cells were diluted in the appropriate growth medium, as described above, to 1.1× final concentration (from 50,000 cell/mL to 200,000 cell/mL, depending on cell line).
Compounds to be tested were added (10 μL, 10× final concentration) to a flat bottomed 96-well plate. The cellular suspension (90 μL per well) was then added, and the plate incubated for 40 hr at 37° C., 5% CO2. Alamar Blue 10 μL per well was added and the plates returned to the incubator for a further 4-6 hours. The plates were then read at 544 nm.

T2 sequence (O60674 849-1124 limits assumed): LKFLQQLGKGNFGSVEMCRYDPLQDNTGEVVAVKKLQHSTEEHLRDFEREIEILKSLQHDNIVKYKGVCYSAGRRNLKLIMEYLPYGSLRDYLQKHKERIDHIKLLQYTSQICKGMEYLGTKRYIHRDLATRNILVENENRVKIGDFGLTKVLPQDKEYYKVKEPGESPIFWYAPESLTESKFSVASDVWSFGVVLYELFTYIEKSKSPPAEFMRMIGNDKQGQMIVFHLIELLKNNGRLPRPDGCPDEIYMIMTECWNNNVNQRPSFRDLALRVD
T3 sequence (P52333 822-1111 limits assumed): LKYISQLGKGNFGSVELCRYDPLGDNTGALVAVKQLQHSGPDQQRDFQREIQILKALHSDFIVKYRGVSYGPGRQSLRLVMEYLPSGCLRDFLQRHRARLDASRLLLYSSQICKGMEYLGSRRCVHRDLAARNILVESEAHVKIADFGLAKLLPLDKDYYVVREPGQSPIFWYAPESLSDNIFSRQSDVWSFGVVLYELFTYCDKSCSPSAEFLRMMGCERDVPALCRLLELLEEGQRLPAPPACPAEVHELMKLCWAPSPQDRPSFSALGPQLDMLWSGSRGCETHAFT
T4 sequence (O60674 whole entry, change not shown, the tested form may be a part): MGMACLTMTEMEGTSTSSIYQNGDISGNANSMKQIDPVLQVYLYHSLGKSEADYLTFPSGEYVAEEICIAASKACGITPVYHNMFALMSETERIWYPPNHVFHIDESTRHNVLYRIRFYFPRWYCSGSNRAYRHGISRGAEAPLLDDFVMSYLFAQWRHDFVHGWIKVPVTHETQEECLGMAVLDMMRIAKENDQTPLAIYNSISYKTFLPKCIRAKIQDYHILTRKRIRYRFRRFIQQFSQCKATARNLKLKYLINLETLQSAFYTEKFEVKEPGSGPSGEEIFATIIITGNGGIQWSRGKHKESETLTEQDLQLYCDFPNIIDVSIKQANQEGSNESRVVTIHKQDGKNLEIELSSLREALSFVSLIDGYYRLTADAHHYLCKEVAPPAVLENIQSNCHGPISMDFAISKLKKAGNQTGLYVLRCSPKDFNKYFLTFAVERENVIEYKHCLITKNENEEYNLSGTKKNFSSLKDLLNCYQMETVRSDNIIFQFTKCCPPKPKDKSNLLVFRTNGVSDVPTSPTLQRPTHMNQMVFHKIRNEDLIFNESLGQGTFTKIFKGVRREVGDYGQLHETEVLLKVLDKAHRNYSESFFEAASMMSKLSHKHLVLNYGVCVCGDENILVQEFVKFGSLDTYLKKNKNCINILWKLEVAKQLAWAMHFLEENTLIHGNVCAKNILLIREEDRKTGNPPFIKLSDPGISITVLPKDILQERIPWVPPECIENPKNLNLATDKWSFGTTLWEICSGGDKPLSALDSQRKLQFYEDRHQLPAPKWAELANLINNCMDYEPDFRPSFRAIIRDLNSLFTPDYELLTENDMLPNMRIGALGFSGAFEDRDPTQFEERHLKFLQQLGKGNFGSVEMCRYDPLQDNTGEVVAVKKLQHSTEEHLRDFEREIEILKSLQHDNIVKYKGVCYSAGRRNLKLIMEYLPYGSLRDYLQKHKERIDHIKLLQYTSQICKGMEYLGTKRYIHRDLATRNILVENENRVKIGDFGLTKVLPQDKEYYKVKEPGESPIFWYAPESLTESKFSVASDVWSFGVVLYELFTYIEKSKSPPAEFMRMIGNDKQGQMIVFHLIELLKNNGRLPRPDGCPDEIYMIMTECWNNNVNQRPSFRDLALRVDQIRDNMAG
T1 sequence (P23458 875-1153 limits assumed): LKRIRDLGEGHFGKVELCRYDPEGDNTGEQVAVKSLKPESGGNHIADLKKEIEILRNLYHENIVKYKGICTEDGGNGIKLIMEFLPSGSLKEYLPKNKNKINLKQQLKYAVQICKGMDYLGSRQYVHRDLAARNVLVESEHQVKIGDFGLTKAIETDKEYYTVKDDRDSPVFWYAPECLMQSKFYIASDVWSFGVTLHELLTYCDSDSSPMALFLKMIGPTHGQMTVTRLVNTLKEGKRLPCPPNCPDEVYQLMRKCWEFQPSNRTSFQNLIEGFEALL

SMILES | IC50 (human JAK1) [nM] | IC50 (human JAK2) [nM] | IC50 (human JAK3) [nM] | GI50 [1] [nM]
C=CC(=O)Nc1cccc(Sc2ccnc(Nc3cccc(N4CCOCC4)c3)n2)c1 [Compound 110, N-(3-(2-(3-morpholinophenylao)pyrimidin-4-ylthio)phenyl)acrylamide] | > 1000 | > 1000 | < 100 | < 20000
O=C(/C=C/Cl)Nc1cccc(Sc2ccnc(Nc3ccc(N4CCOCC4)cc3)n2)c1 [Compound 340, (E)-3-chloro-N-(3-(2-(4-morpholinophenylao)pyrimidin-4-ylthio)phenyl)acrylamide] | > 1000 | > 1000 | < 100 | < 20000
C=CC(=O)Nc1ccc(Sc2nc(Nc3ccc(NS(C)(=O)=O)cc3)ncc2C)cc1 [Compound 285, N-(4-(5-methyl-2-(4-(methylsulfonamido)phenylao)pyrimidin-4-ylthio)phenyl)acrylamide] | > 1000 | > 1000 | < 100 | < 5000
O=C(/C=C\Cl)Nc1ccc(Sc2ccnc(Nc3ccc(N4CCOCC4)cc3)n2)cc1 [Compound 346, (Z)-3-chloro-N-(4-(2-(4-morpholinophenylao)pyrimidin-4-ylthio)phenyl)acrylamide] | > 1000 | > 1000 | < 100 | < 1000
C=CC(=O)Nc1ccc(Sc2nc(Nc3ccc(N4CCOCC4)c(OC)c3)ncc2C)cc1 [Compound 248, N-(4-(2-(3-methoxy-4-morpholinophenylao)-5-methylpyrimidin-4-ylthio)phenyl)acrylamide] | > 1000 | > 1000 | < 100 | < 20000
CNC(=O)/C=C\C(=O)Nc1ccc(Sc2nc(Nc3ccc(N4CCOCC4)cc3)ncc2C)cc1 [Compound 389, N1-methyl-N4-(4-(5-methyl-2-(4-morpholinophenylao)pyrimidin-4-ylthio)phenyl)maleamide] | > 1000 | > 1000 | < 100 | < 20000
C=CC(=O)Nc1ccc(Sc2nc(Nc3ccc(N4CCC(CO)CC4)cc3)ncc2C)cc1 [Compound 286, N-(4-(2-(4-(4-(hydroxymethyl)piperidin-1-yl)phenylao)-5-methylpyrimidin-4-ylthio)phenyl)acrylamide] | > 1000 | > 1000 | < 100 | > 20000
Nc1ccc(Sc2ccnc(Nc3ccc(N4CCOCC4)cc3)n2)cc1 [Compound 27, 4-(4-aophenylthio)-N-(4-morpholinophenyl)pyrimidin-2-ae] | < 1000 | < 500 | < 1000 | > 20000
N#Cc1nnn(Cc2ccc(Sc3ccnc(Nc4ccc(N5CCOCC5)cc4)n3)cc2)n1 [Compound 156, 2-(4-(2-(4-morpholinophenylao)pyrimidin-4-ylthio)benzyl)-2H-tetrazole-5-carbonitrile] | > 1000 | > 1000 | < 100 | < 5000
C=CC(=O)Nc1ccc(Sc2nc(Nc3cccc(N4CCN(C)CC4)c3)ncc2C)cc1 [Compound 243, N-(4-(5-methyl-2-(3-(4-methylpiperazin-1-yl)phenylao)pyrimidin-4-ylthio)phenyl)acrylamide] | > 1000 | > 1000 | < 100 | < 5000
C=CC(=O)Nc1ccc(Sc2ccnc(Nc3cccc(N4CCOCC4)c3)n2)cc1 [Compound 77, N-(4-(2-(3-morpholinophenylao)pyrimidin-4-ylthio)phenyl)acrylamide] | > 1000 | > 1000 | < 100 | < 5000
C=CC(=O)Nc1ccc(Sc2nc(Nc3cccc(CO)c3)ncc2C)cc1 [Compound 280, N-(4-(2-(3-(hydroxymethyl)phenylao)-5-methylpyrimidin-4-ylthio)phenyl)acrylamide] | > 1000 | > 1000 | < 100 | < 20000
N#CCC(=O)Nc1cccc(Sc2ccnc(Nc3ccc(N4CCOCC4)cc3)n2)c1 [Compound 24, N-(3-(2-(4-morpholinophenylamino)pyrimidin-4-ylthio)phenyl)-2-cyanoacetamide] | > 1000 | < 500 | – | < 20000
CC#CC(=O)Nc1ccc(Sc2ccnc(Nc3cccc(N4CCOCC4)c3)n2)cc1 [Compound 233, N-(4-(2-(3-morpholinophenylao)pyrimidin-4-ylthio)phenyl)but-2-ynamide] | – | > 1000 | < 100 | < 5000
Cc1cnc(Nc2ccc(N3CCOCC3)cc2)nc1Sc1ccc(N)cc1Cl [Compound 251, 4-(4-ao-2-chlorophenylthio)-5-methyl-N-(4-morpholinophenyl)pyrimidin-2-ae] | – | > 1000 | < 100 | > 20000
Cc1cnc(Nc2ccc(N3CCN(C)CC3)cc2)nc1Sc1ccc(N)cc1 [Compound 244, 4-(4-aophenylthio)-5-methyl-N-(4-(4-methylpiperazin-1-yl)phenyl)pyrimidin-2-ae] | – | < 500 | < 100 | < 5000
C=CC(=O)Nc1ccc(Sc2ccnc(Nc3cccc(O)c3)n2)cc1 [Compound 277, N-(4-(2-(3-hydroxyphenylao)pyrimidin-4-ylthio)phenyl)acrylamide] | – | > 1000 | < 100 | < 5000
C=CC(=O)Nc1ccc(Sc2nc(Nc3ccc(N4CCOCC4)cc3)ncc2C)cc1CC [Compound 260, N-(2-ethyl-4-(5-methyl-2-(4-morpholinophenylao)pyrimidin-4-ylthio)phenyl)acrylamide] | – | > 1000 | < 100 | > 20000
